Test results from patent US9050341B2, “Methods of treating drug resistant and other tumors by administering 6,7-dialkoxy quinazoline derivatives” (NATCO PHARMA LIMITED, priority 2009, dated 2015).

Columns and labels:
Assay in all cases: KinomeScan kinase profiling
Format in all cases: binding
[1] = target: T1, PLK1 (Homo sapiens, UniProt P53350)
T1 construct: purchased Ambit Biosciences Corp (KinomeScan); host or cells: E. coli host derived from BL21, infected with T7 phage
Method in brief: (§1)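 Kinases were expressed as T7 phage fusions in a BL21-derived E. coli host and the cleared lysates were used. Ligand beads were blocked with biotin and buffer (1% BSA, 0.05% Tween 20, 1 mM DTT). Compounds came from 40× DMSO stocks, and phage in the eluates was titred by qPCR.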

[2] = target: T2, MRCKA (Homo sapiens, UniProt Q5VT25)
T2 construct: host or cells: T7 phage in E. coli host derived from BL21
Method in brief: as §1

[3] = target: T3, CDC2L2 (Homo sapiens, UniProt Q9UQ88)
T3 construct: host or cells: T7 phage in E. coli (BL21-derived)
Method in brief: as §1

[4] = target: T4, STK35 (Homo sapiens, UniProt Q8TDR2)
T4 construct: host or cells: E. coli host derived from the BL21 strain, T7 phage lysate
Method in brief: as §1

[5] = target: T5, SgK085 (Homo sapiens, UniProt Q86YV6)
T5 construct: host or cells: E. coli host derived from the BL21 strain, T7 phage lysate
Method in brief: as §1

[6] = target: T6, TAOK3 (Homo sapiens, UniProt Q9H2K8)
T6 construct: host or cells: E. coli host derived from the BL21 strain, T7 phage lysate
T6 sequence (Q9H2K8 whole entry): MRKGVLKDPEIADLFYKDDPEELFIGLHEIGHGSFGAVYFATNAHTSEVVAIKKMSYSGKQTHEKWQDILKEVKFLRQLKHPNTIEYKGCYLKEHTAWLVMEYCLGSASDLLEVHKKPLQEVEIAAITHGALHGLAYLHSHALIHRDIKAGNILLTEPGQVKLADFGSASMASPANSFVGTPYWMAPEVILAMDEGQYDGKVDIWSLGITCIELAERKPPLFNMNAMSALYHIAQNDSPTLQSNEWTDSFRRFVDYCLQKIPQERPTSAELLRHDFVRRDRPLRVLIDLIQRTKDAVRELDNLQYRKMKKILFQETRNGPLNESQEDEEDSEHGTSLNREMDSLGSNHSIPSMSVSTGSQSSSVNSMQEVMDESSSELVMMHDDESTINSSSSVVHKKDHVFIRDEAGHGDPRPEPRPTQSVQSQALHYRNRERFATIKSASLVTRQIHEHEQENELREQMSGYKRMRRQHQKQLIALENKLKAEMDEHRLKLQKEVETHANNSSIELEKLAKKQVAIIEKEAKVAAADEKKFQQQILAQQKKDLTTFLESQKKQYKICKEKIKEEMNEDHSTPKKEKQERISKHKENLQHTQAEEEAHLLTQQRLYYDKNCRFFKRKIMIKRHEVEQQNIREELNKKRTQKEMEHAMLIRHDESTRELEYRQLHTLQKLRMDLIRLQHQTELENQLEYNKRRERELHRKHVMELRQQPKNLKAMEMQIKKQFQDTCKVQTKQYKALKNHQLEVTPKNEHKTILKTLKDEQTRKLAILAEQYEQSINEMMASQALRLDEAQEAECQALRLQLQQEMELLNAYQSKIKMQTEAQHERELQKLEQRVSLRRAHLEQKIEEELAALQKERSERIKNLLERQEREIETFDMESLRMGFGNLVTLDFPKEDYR
Method in brief: as §1

[7] = target: T7, RPS6KA1 (Kin.Dom.-1-N-terminal) (Homo sapiens, UniProt Q15418)
T7 construct: RPS6KA1 (Kin.Dom.-1-N-terminal); host or cells: E. coli host derived from BL21, T7 phage lysate
T7 sequence (Q15418 62-321 limits assumed): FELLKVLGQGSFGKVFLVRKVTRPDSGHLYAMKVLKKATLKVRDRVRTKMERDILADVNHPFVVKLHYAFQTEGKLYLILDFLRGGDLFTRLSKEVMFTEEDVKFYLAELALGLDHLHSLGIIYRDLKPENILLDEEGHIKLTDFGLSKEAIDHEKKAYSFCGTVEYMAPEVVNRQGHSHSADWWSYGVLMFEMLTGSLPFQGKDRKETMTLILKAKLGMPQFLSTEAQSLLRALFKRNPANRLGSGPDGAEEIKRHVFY
Method in brief: as §1

[8] = target: T8, EPHA8 (Homo sapiens, UniProt P29322)
T8 construct: host or cells: E. coli host derived from BL21, T7 phage lysate
Method in brief: as §1

[9] = target: T9, TLK1 (Homo sapiens, UniProt Q9UKI8)
T9 construct: purchased Ambit Biosciences Corp (KinomeScan); host or cells: E. coli host derived from the BL21 strain (T7 phage lysate)
Method in brief: as §1

[10] = target: T10, ACVR2A (Homo sapiens, UniProt P27037)
T10 construct: host or cells: E. coli host derived from BL21 (T7 phage lysate)
T10 sequence (P27037 20-513): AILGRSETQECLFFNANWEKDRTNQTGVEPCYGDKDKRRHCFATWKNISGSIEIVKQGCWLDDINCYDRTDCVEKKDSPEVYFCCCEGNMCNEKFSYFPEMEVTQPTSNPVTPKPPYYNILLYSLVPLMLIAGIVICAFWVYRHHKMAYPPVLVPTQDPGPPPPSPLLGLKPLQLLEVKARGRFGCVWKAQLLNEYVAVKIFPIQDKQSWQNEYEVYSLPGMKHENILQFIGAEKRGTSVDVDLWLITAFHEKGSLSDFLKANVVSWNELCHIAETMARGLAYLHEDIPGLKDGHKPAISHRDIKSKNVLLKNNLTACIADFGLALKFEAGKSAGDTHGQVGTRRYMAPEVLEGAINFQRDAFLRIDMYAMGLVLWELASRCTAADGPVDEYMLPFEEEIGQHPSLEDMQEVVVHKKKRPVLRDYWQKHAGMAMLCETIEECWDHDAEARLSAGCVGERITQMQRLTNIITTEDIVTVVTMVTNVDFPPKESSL
Method in brief: as §1

[11] = target: T11, NEK6 (Homo sapiens, UniProt Q9HC98)
T11 construct: host or cells: T7 phage in E. coli host derived from BL21
Method in brief: as §1

[12] = target: T12, ABL1 (Homo sapiens, UniProt P00519)
T12 construct: host or cells: E. coli host derived from BL21 (T7 phage lysate)
Method in brief: as §1

[13] = target: T13, PHKG1 (Homo sapiens, UniProt Q16816)
T13 construct: host or cells: E. coli host derived from the BL21 strain, infected with T7 phage
Method in brief: as §1

[14] = target: T14, ABL1 (M351T) (Homo sapiens, UniProt P00519, M351T)
T14 construct: host or cells: E. coli host derived from BL21 (T7 phage lysate)
Method in brief: as §1

[15] = target: T15, CLK2 (Homo sapiens, UniProt P49760)
T15 construct: host or cells: T7 phage in E. coli (BL21-derived)
Method in brief: as §1

[16] = target: T16, DDR1 (Homo sapiens, UniProt Q08345)
T16 construct: purchased Ambit Biosciences Corp (KinomeScan); host or cells: T7 phage in E. coli host derived from BL21
T16 sequence (Q08345 19-913): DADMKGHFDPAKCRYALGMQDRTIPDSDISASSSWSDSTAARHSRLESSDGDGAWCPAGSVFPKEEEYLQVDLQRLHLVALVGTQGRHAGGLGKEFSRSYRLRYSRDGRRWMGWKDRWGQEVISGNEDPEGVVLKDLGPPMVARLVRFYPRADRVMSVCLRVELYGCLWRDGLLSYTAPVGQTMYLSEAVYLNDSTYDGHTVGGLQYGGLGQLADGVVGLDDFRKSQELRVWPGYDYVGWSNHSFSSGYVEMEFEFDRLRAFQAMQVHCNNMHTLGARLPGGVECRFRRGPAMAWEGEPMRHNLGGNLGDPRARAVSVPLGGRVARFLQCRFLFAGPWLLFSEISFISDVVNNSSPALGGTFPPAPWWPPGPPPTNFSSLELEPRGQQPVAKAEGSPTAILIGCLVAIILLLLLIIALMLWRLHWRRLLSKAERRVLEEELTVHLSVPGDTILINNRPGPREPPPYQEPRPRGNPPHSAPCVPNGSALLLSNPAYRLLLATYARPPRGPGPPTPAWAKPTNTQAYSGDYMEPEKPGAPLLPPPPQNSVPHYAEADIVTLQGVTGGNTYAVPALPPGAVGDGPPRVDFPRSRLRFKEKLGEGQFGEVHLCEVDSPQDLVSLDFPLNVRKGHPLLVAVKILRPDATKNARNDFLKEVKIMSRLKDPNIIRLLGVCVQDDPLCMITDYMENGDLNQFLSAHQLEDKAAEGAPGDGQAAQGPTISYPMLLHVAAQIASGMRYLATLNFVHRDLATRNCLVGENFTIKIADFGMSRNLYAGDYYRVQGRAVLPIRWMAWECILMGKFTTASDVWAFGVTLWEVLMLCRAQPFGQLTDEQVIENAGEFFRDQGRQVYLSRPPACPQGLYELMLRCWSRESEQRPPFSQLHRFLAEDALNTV
Method in brief: as §1

[17] = target: T17, MAP3K3 (Homo sapiens, UniProt Q99759)
T17 construct: host or cells: E. coli derived from BL21, infected with T7 phage
T17 sequence (Q99759 whole entry): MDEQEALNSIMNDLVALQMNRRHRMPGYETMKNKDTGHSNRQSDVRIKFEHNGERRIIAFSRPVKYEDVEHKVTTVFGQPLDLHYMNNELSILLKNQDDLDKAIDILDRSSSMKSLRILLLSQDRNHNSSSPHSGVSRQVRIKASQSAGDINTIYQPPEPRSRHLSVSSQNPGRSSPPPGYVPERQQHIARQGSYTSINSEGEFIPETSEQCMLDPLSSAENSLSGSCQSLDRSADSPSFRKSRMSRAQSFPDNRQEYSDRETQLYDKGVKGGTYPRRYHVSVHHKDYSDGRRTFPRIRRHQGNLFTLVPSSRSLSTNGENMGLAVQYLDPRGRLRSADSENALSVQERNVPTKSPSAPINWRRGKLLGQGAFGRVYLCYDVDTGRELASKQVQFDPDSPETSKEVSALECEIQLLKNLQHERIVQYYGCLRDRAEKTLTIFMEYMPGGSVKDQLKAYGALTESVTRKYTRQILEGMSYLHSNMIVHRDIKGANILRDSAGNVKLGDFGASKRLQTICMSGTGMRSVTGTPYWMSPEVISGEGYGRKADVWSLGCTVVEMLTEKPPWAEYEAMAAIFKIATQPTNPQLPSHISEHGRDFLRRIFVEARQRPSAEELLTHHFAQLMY
Method in brief: as §1

[18] = target: T18, ANKK1 (Homo sapiens, UniProt Q8NFD2)
T18 construct: host or cells: E. coli host derived from BL21 (T7 phage lysate)
Method in brief: as §1

[19] = target: T19, MYO3B (Homo sapiens, UniProt Q8WXR4)
T19 construct: host or cells: T7 phage in E. coli host derived from BL21
T19 sequence (Q8WXR4 whole entry): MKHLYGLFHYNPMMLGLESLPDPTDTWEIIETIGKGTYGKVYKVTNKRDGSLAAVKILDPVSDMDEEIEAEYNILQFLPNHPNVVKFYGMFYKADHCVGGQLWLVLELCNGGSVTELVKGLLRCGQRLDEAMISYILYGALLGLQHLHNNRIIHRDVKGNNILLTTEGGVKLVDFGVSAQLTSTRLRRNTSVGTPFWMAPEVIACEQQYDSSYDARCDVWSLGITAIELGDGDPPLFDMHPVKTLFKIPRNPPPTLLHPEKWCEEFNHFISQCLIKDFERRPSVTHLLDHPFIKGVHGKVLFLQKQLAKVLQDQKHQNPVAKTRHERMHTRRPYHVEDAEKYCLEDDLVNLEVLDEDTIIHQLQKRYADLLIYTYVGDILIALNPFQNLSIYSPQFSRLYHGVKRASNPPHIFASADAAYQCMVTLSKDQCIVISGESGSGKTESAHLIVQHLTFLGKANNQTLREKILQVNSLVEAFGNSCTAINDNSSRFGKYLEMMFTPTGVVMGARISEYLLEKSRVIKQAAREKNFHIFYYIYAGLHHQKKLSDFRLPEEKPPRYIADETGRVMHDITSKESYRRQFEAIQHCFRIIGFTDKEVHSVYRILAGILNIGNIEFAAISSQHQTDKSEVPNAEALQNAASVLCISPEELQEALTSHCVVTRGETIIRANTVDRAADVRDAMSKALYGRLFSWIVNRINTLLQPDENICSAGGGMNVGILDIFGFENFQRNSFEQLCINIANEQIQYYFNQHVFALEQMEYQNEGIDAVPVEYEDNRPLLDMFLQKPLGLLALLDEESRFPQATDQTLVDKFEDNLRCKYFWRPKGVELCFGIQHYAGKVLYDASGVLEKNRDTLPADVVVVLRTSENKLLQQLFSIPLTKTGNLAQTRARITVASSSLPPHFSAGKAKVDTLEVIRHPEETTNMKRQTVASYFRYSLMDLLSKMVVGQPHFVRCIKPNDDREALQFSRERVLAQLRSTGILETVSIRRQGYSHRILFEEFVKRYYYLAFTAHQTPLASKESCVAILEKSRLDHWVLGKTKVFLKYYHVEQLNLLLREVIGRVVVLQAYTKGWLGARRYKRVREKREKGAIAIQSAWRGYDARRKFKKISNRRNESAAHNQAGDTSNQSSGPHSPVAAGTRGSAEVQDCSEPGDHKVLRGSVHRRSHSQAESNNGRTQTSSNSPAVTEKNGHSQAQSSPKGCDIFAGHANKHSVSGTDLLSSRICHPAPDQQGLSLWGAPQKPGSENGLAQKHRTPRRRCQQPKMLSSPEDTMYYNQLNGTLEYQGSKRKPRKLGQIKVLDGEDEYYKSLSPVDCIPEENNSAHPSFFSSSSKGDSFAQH
Method in brief: as §1

[20] = target: T20, EPHA6 (Homo sapiens, UniProt Q9UF33)
T20 construct: host or cells: E. coli host derived from BL21, T7 phage lysate
Method in brief: as §1

[21] = target: T21, DDR2 (Homo sapiens, UniProt Q16832)
T21 construct: purchased Ambit Biosciences Corp (KinomeScan); host or cells: T7 phage in E. coli host derived from BL21
Method in brief: as §1

[22] = target: T22, RPS6KA6 (Kin.Dom.-2-C-terminal) (Homo sapiens, UniProt Q9UK32)
T22 construct: RPS6KA6 (Kin.Dom.-2-C-terminal); host or cells: E. coli host derived from the BL21 strain, T7 phage lysate
T22 sequence (Q9UK32 426-683 limits assumed): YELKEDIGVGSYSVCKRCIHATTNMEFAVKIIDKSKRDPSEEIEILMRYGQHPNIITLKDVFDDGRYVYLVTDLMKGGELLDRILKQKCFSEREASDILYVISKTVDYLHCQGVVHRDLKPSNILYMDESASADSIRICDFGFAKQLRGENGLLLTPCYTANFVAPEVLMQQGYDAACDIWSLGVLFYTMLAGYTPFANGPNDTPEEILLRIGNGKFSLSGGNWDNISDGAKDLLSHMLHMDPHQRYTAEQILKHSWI
Method in brief: as §1

With `C#Cc1cccc(Nc2ncnc3cc(OC)c(OCCCN4CCOCC4)cc23)c1` [NRC-2694, N-(3-ethylnylphenyl)-7-methoxy-6-[3-(4-morpholinyl)propoxy]-4-quinazolinamine] the “% Ctrl @ 10000 nM” value [1] was 81 % Ctrl, the “% Ctrl @ 10000 nM” value [2] was 81 % Ctrl and the “% Ctrl @ 10000 nM” value [3] was 37 % Ctrl. The “% Ctrl @ 10000 nM” value [4] was 52 % Ctrl, the “% Ctrl @ 10000 nM” value [5] was 84 % Ctrl and the “% Ctrl @ 10000 nM” value [6] was 76 % Ctrl. For the same molecule, the “% Ctrl @ 10000 nM” value [7] was 100 % Ctrl, the “% Ctrl @ 10000 nM” value [8] was 66 % Ctrl and the “% Ctrl @ 10000 nM” value [9] was 77 % Ctrl. The “% Ctrl @ 10000 nM” value [10] was 92 % Ctrl, the “% Ctrl @ 10000 nM” value [11] was 94 % Ctrl and the “% Ctrl @ 10000 nM” value [12] was 67 % Ctrl. For the same molecule, the “% Ctrl @ 10000 nM” value [13] was 50 % Ctrl, the “% Ctrl @ 10000 nM” value [14] was 37 % Ctrl and the “% Ctrl @ 10000 nM” value [15] was 64 % Ctrl. For the same molecule, the “% Ctrl @ 10000 nM” value [16] was 39 % Ctrl, the “% Ctrl @ 10000 nM” value [17] was 5.9 % Ctrl and the “% Ctrl @ 10000 nM” value [18] was 73 % Ctrl. The “% Ctrl @ 10000 nM” value [19] was 100 % Ctrl, the “% Ctrl @ 10000 nM” value [20] was 25 % Ctrl and the “% Ctrl @ 10000 nM” value [21] was 76 % Ctrl. For the same molecule, the “% Ctrl @ 10000 nM” value [22] was 55 % Ctrl.
